Measurements taken from US20260242418A1, “CYCLIC PEPTIDES WITH ANTIBACTERIAL ACTIVITY AGAINST MULTIDRUG RESISTANT (MDR) PATHOGENS” (priority 2022, published 2026).

Columns and labels:
[1] = tested on: A. baumannii 8 clinical strain; experiment: Time-kill curves; assay type: cell-based, Acinetobacter baumannii
Method: (§1) Time-kill curves (TKC) determine the in vitro antimicrobial activity of a compound, monitoring the bacterial growth over a certain period of time.
(§2) This assay was performed for two Acinetobacter baumannii strains (a clinical strain and ATCC 19606 strain) and one Pseudomonas aeruginosa ATCC 27853 strain, monitoring its growth during 24 hours at different PLP-3 (SEQ ID NO: 4) concentrations: MIC, 2×MIC, 4×MIC, 8×MIC. Moreover, in each TKC assay a negative and a positive growth control was stablished.
(§3) In different 13MI tubes, a certain concentration of PLP-3 peptide, Mueller-Hinton Broth (MHB, 1214, Condalab) and a fixed inoculum concentration were added. The final inoculum concentration in each tube was […]. Tubes were incubated at 37° C. at 180 rpm during 24 hours. Aliquots of the liquid culture were taken at different times: 0 h, 10 minutes, 30 minutes, 1 h, 2 h, 4 h, 8 h and 24 h. For each taken aliquot, serial dilutions with Phosphate Saline Buffer 1× (PBS 1×) were made and streaked in Luria-Bertani Agar (LB, 1083, Condalab). LB Agar plates were incubated at 37° C. during 18-22 hours. Grown colonies in LB Agar were counted in order to quantify the inoculum in each time period.
(§4) Three biological replicates were performed for each strain, and the mean and standard deviation was determined each time.

P. aeruginosa ATCC 27853 = experiment: Time-kill curves; assay type: cell-based, Pseudomonas aeruginosa
Method: as §1, §2, §3, §4

[2] = time-kill curves over 24 hours, MIC to 8xMIC

## CC(C)C[C@@H]1NC(=O)[C@H](CCCNC(=N)N)NC(=O)[C@H](CCCNC(=N)N)NC(=O)[C@H](CCCNC(=N)N)NC(=O)[C@H]2CCCN2C(=O)[C@H](CCCNC(=N)N)NC(=O)[C@H](CCCNC(=N)N)NC(=O)[C@H](C(C)C)NC(=O)[C@@H]2CSSC[C@H](NC1=O)C(=O)N[C@@H](Cc1ccccc1)C(=O)N[C@@H](C(C)C)C(=O)N[C@@H](CCCNC(=N)N)C(=O)N1CCC[C@@H]1C(=O)N[C@@H](CCCCN)C(=O)N[C@@H](Cc1ccccc1)C(=O)N[C@@H](C(C)C)C(=O)N[C@@H](C(C)C)C(=O)N2 [PLP-3, cyclo[RRRLCFVRPKFVVCVRRP]]
[1]; 8xMIC (16 μg/mL), 0.00 h
  log(CFU/mL) Mean: 5.60 log(CFU/mL)
[1]; 8xMIC (16 μg/mL), 0.17 h
  log(CFU/mL) Mean: 4.45 log(CFU/mL)
[1]; 8xMIC (16 μg/mL), 0.50 h
  log(CFU/mL) Mean: 0.00 log(CFU/mL)
[1]; 8xMIC (16 μg/mL), 1.00 h
  log(CFU/mL) Mean: 0.00 log(CFU/mL)
[1]; 8xMIC (16 μg/mL), 2.00 h
  log(CFU/mL) Mean: 0.00 log(CFU/mL)
[1]; 8xMIC (16 μg/mL), 4.00 h
  log(CFU/mL) Mean: 0.00 log(CFU/mL)
[1]; 8xMIC (16 μg/mL), 8.00 h
  log(CFU/mL) Mean: 0.00 log(CFU/mL)
[1]; 8xMIC (16 μg/mL), 24.00 h
  log(CFU/mL) Mean: 0.00 log(CFU/mL)
[1]; MIC (2 μg/mL), 0.00 h
  log(CFU/mL) Mean: 5.60 log(CFU/mL)
[1]; MIC (2 μg/mL), 0.17 h
  log(CFU/mL) Mean: 5.63 log(CFU/mL)
[1]; MIC (2 μg/mL), 0.50 h
  log(CFU/mL) Mean: 5.18 log(CFU/mL)
[1]; MIC (2 μg/mL), 1.00 h
  log(CFU/mL) Mean: 4.55 log(CFU/mL)
[1]; MIC (2 μg/mL), 2.00 h
  log(CFU/mL) Mean: 3.56 log(CFU/mL)
[1]; MIC (2 μg/mL), 4.00 h
  log(CFU/mL) Mean: 2.54 log(CFU/mL)
[1]; MIC (2 μg/mL), 8.00 h
  log(CFU/mL) Mean: 2.90 log(CFU/mL)
[1]; MIC (2 μg/mL), 24.00 h
  log(CFU/mL) Mean: 4.67 log(CFU/mL)
[1]; [2]
  bactericidal or bacteriostatic activity: bactericidal effect
P. aeruginosa ATCC 27853; 2xMIC (16 μg/mL), 0.00 h
  log(CFU/mL) Mean: 5.52 log(CFU/mL)
P. aeruginosa ATCC 27853; 2xMIC (16 μg/mL), 0.17 h
  log(CFU/mL) Mean: 4.48 log(CFU/mL)
P. aeruginosa ATCC 27853; 2xMIC (16 μg/mL), 0.50 h
  log(CFU/mL) Mean: 3.75 log(CFU/mL)
P. aeruginosa ATCC 27853; 2xMIC (16 μg/mL), 1.00 h
  log(CFU/mL) Mean: 2.97 log(CFU/mL)
P. aeruginosa ATCC 27853; 2xMIC (16 μg/mL), 2.00 h
  log(CFU/mL) Mean: 0.88 log(CFU/mL)
P. aeruginosa ATCC 27853; 2xMIC (16 μg/mL), 4.00 h
  log(CFU/mL) Mean: 0.00 log(CFU/mL)
P. aeruginosa ATCC 27853; 2xMIC (16 μg/mL), 8.00 h
  log(CFU/mL) Mean: 0.00 log(CFU/mL)
P. aeruginosa ATCC 27853; 2xMIC (16 μg/mL), 24.00 h
  log(CFU/mL) Mean: 0.00 log(CFU/mL)
P. aeruginosa ATCC 27853; 4xMIC (32 μg/mL), 0.00 h
  log(CFU/mL) Mean: 5.52 log(CFU/mL)
P. aeruginosa ATCC 27853; 4xMIC (32 μg/mL), 0.17 h
  log(CFU/mL) Mean: 4.32 log(CFU/mL)
P. aeruginosa ATCC 27853; 4xMIC (32 μg/mL), 0.50 h
  log(CFU/mL) Mean: 3.46 log(CFU/mL)
P. aeruginosa ATCC 27853; 4xMIC (32 μg/mL), 1.00 h
  log(CFU/mL) Mean: 1.23 log(CFU/mL)
P. aeruginosa ATCC 27853; 4xMIC (32 μg/mL), 2.00 h
  log(CFU/mL) Mean: 0.57 log(CFU/mL)
P. aeruginosa ATCC 27853; 4xMIC (32 μg/mL), 4.00 h
  log(CFU/mL) Mean: 0.00 log(CFU/mL)
P. aeruginosa ATCC 27853; 4xMIC (32 μg/mL), 8.00 h
  log(CFU/mL) Mean: 0.00 log(CFU/mL)
P. aeruginosa ATCC 27853; 4xMIC (32 μg/mL), 24.00 h
  log(CFU/mL) Mean: 0.00 log(CFU/mL)
P. aeruginosa ATCC 27853; 8xMIC (64 μg/mL), 0.00 h
  log(CFU/mL) Mean: 5.52 log(CFU/mL)
P. aeruginosa ATCC 27853; 8xMIC (64 μg/mL), 0.17 h
  log(CFU/mL) Mean: 4.14 log(CFU/mL)
P. aeruginosa ATCC 27853; 8xMIC (64 μg/mL), 0.50 h
  log(CFU/mL) Mean: 1.43 log(CFU/mL)
P. aeruginosa ATCC 27853; 8xMIC (64 μg/mL), 1.00 h
  log(CFU/mL) Mean: 0.00 log(CFU/mL)
P. aeruginosa ATCC 27853; 8xMIC (64 μg/mL), 2.00 h
  log(CFU/mL) Mean: 0.00 log(CFU/mL)
P. aeruginosa ATCC 27853; 8xMIC (64 μg/mL), 4.00 h
  log(CFU/mL) Mean: 0.00 log(CFU/mL)
P. aeruginosa ATCC 27853; 8xMIC (64 μg/mL), 8.00 h
  log(CFU/mL) Mean: 0.00 log(CFU/mL)
P. aeruginosa ATCC 27853; 8xMIC (64 μg/mL), 24.00 h
  log(CFU/mL) Mean: 0.00 log(CFU/mL)
P. aeruginosa ATCC 27853; MIC (8 μg/mL), 0.00 h
  log(CFU/mL) Mean: 5.52 log(CFU/mL)
P. aeruginosa ATCC 27853; MIC (8 μg/mL), 0.17 h
  log(CFU/mL) Mean: 4.81 log(CFU/mL)
P. aeruginosa ATCC 27853; MIC (8 μg/mL), 0.50 h
  log(CFU/mL) Mean: 4.34 log(CFU/mL)
P. aeruginosa ATCC 27853; MIC (8 μg/mL), 1.00 h
  log(CFU/mL) Mean: 3.67 log(CFU/mL)
P. aeruginosa ATCC 27853; MIC (8 μg/mL), 2.00 h
  log(CFU/mL) Mean: 3.15 log(CFU/mL)
P. aeruginosa ATCC 27853; MIC (8 μg/mL), 4.00 h
  log(CFU/mL) Mean: 2.63 log(CFU/mL)
P. aeruginosa ATCC 27853; MIC (8 μg/mL), 8.00 h
  log(CFU/mL) Mean: 2.10 log(CFU/mL)
P. aeruginosa ATCC 27853; MIC (8 μg/mL), 24.00 h
  log(CFU/mL) Mean: 5.08 log(CFU/mL)
P. aeruginosa ATCC 27853; [2]
  bactericidal or bacteriostatic activity: bactericidal effect
